Test results taken from patent US6399590B2, “Phosphoglycolipid and methods for its use” (Corixa Corporation, priority 1998, dated 2002).

Experiments:
[1] = system: Adult mongrel dogs, left anterior descending coronary artery (LAD) occlusion/reperfusion; test: Infarct size in the dog, 60 min LAD occlusion and 3 h reperfusion; assay type: in vivo; conditions: L34 35 μg/kg 24 h before occlusion + aminoguanidine (AG) 30 mg/kg s.c. 60 min before occlusion; mean ± SEM; 30 mg/kg
Protocol: Adult mongrel dogs of either sex, weighing 19.0-30.0 kg were fasted overnight, anaesthetized with intravenous sodium barbital (200 mg/kg) and sodium pentobarbital (15 mg/kg), and ventilated with room air supplemented with 100% oxygen at an end expiratory pressure of 5-7 cm H2O to prevent atelectasis. Arterial blood pH PO2 and PCO2 were monitored at selected intervals by an automatic blood gas system and maintained within a normal physiological range (pH 7.35-7.45, PO2 10.6-16.0 kPa, PCO2 3,3-4.7 kPa) by adjusting the respiratory rate and oxygen flow and by an infusion of 1.5% sodium bicarbonate when necessary. Body temperature was maintained at 38±1° C. by using a heating pad.
A double pressure-transducer-tipped catheter was inserted into the aorta and left ventricle via the left carotid artery for measurements of aortic and left ventricular pressure. Left ventricular dP/dt was determined by electronic differentiation of the left ventricular pressure pulse.
A left thoracotomy was performed at the fifth intercostal space. The lung was retracted, the pericardium incised, and the heart suspended in a cradle. A 10-15 mm segment of the left anterior descending coronary artery (LAD) was dissected from surrounding tissue. […]
Regional myocardial blood flow was measured by the radioactive microsphere technique. […]

[2] = system: pig model of regional myocardial ischemia/reperfusion; test: Infarct size in pigs, 40 min LAD occlusion and 3 h reperfusion; assay type: in vivo; conditions: i.v. 10 min prior to coronary artery occlusion (35 μg/kg); FIG. 4
Protocol: To assess the efficacy of L34 to reduce infarct size, nine pigs were assigned in a non-blinded fashion to one of four groups: (1) control (n=2), (2) vehicle control (n4), (3) L34 (35 μg/kg) (n=2), (4) L34 (70 μg/kg) (n=1). L34 was formulated in 10% ethanol, 40% propylene glycol in Water for Injection. Blinded studies were additionally conducted with eight pigs randomly assigned to one of two treatment groups: (1) A (n=4), (2) B (n=4). Group A and B were either vehicle control or L34. Vehicle or drug injection was diluted one to one with 5% dextrose in Water for Injection prior to administration.
Male pigs (15-20 kg) were anesthetized with ketamine (25 mg/kg, i.m.) and sodium pentobarbital (10 mg/kg, i.v.), intubated and mechanically ventilated with room air. Pigs were placed on a 37° C. circulating water heating pad. The left carotid artery of each animal was cannulated with 5Fr Millar catheter for measuring left ventricular pressure and the right carotid artery was cannulated with 24G I.V. catheter for sampling blood. A median sternotomy was performed and the pericardium was incised. […]
Following 40 min of occlusion, the snare was released and the myocardium was reperfused for 3 h. The hemodynamic parameters at certain time points were recorded and blood samples were collected. […]

With `CCCCCCCCCCCCCCCCCC(=O)O[C@H](CCCCCCCCCCC)CC(=O)N[C@H]1[C@H](OC[C@H]2OC(O)[C@H](NC(=O)C[C@@H](CCCCCCCCCCC)OC(=O)CCCCCCCCCCCCCCC)[C@@H](O)[C@@H]2O)O[C@H](CO)[C@@H](OP(=O)(O)O)[C@@H]1OC(=O)C[C@@H](CCCCCCCCCCC)OC(=O)CCCCCCCCCCCCC` (stereo partly drawn) [L34, 2-Deoxy-6-O-[2-deoxy-4-O-phosphono-3-O-[(R)-3-tetradecanoyloxytetradecanoyl]-2-[(R)-3-octadecanoyloxytetradecanoylamino]-β-D-glucopyranosyl]-2-[(R)-3-hexadecanoyloxytetradecanoylamino]-D-glucopyranose] the “IS/AAR(%) (infarct size / area at risk)” value [1] was 25.2±2.7% and the “reduction in infarct size expressed as % AN/AR in g compared to controls” value [2] was 46%.
